In PMC5637929, “RadH: A Versatile Halogenase for Integration into Synthetic Pathways” (Angewandte Chemie (International Ed. in English), 2017) one finds Km, kcat and kcat/Km data, which are given here for seven molecules.

For orientation: Km means the concentration of substrate that gives half-maximal velocity. What is called kcat is the maximal rate divided by the concentration of active sites. For orientation: kcat/Km means the turnover number divided by the Michaelis constant.

Experiment in all cases: Michaelis-Menten halogenation kinetics
Series [1] addresses T1, RadH (Floropilus chiversii, UniProt C5H881).
T1 construct: recombinant, overproduced in E. coli, purified
In kind it is biochemical. The following applies: kinetic assay conditions in supplement (Figures S4-S10). The text has this: (§1) Michaelis-Menten halogenation kinetics on RadH

In series [2] the target is T2, RadH (Floropilus chiversii, UniProt C5H881, D465E/T501S).
T2 construct: recombinant, overproduced in E. coli, purified
Format: biochemical. The settings on record: kinetic assay conditions in supplement (Figures S4-S10); table prints D456E/T501S, text prints D465E/T501S throughout.
From the text: as §1

The test system of series [3] is O=c1cc(-c2ccccc2)oc2cc(O)ccc12. Format: biochemical, Floropilus chiversii. The following applies: kinetic assay conditions in supplement (Figures S4-S10).
From the text: as §1

The mark [4] stands for this setting: table prints D456E/T501S, text prints D465E/T501S throughout.

T1 sequence (C5H881 whole entry): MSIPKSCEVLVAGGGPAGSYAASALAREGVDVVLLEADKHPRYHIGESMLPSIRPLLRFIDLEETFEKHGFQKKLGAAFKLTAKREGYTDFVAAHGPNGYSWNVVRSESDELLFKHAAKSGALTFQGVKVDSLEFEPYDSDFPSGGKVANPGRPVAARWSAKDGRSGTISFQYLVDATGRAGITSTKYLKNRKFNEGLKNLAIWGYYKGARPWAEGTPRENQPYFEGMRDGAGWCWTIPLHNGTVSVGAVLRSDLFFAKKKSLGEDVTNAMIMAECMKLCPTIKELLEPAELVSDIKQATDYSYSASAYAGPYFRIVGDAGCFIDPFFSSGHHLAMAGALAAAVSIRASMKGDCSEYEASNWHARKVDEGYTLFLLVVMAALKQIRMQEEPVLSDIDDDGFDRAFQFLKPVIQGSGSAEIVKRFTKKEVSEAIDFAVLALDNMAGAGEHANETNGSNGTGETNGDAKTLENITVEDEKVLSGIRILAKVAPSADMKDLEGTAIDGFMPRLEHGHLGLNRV
T2 sequence (C5H881 whole entry D465E/T501S): as the sequence (C5H881 whole entry) above, with D465E, T501S counted along it

Consider `Oc1ccc2cnccc2c1` [compound 6, 6-hydroxyisoquinoline], for which the Michaelis constant (Km) at RadH [1] came out at 277 ± 3 µM; at RadH [2], 268 ± 10 µM.
Take `O=c1ccc2ccc(O)cc2o1` [compound 8, 7-hydroxycoumarin]: the values for the Km at RadH [1] and at RadH [2] were 379 ± 5 µM and 465 ± 4 µM, respectively.
Turning to `O=c1cc(C(F)(F)F)c2ccc(O)cc2o1` [compound 10, 10], the Km at RadH [1] turned out to be 309 ± 19 µM.
`Cc1cc(=O)oc2cc(O)ccc12` [compound 11, 11]: the Km on RadH [1] worked out at 364 ± 18 µM.
For the molecule `O=c1c(-c2ccc(O)cc2)coc2cc(O)ccc12` [compound 14, 14], the results for the Michaelis constant (Km) at RadH [1] and at RadH [2] were 281 ± 2 µM and 315 ± 1 µM, respectively.
On to RadH (Floropilus chiversii), for which, in series [3], the Km was 347 ± 2 µM, the kcat is 0.000533 ± 5e-05 s⁻¹ and the kcat/Km amounted to 1.53 ± 0.15 M⁻¹ s⁻¹.
Take “RadH (Floropilus chiversii; D465E/T501S)”: in series [3] (setting [4]), the Km amounted to 383 ± 4 µM, the kcat was found to be 0.000517 ± 3.33e-05 s⁻¹ and the kcat/Km turned out to be 1.35 ± 0.0833 M⁻¹ s⁻¹.
